Measurements: patent US20240298644A1, “HETEROCYCLIC COMPOUND AND RESISTANT HARMFUL ARTHROPOD- CONTROLLING METHOD FOR COMPOSITION CONTAINING SAME” (SUMITOMO CHEMICAL COMPANY, LIMITED, priority 2021, published 2024)

Legend:
[1] = Test method 5: spray on tomato seedlings carrying larvae of resistant tobacco whiteflies; conditions: Bemisia tabaci
[2] = tested on: resistant cotton aphids (Aphis gossypii) (lineages collected in Miyazaki prefecture in 2012, screened with imidacloprid); assay: Test method 1: foliar spray on cucumber seedlings infested with resistant cotton aphids; format: in vivo; conditions: Comparative Test Example 1, 500 ppm
Method: Test compounds are made to a formulation according to a similar method to that described in the Formulation example 1, and thereto is added water containing 0.03 v/v % of Shindain (registered trademark) to prepare a diluted solution containing a prescribed concentration of the test compound.
Cucumber (cucumber sativus) seedling (on the developmental stage of the second true leaf) is planted in a cup, and approximately 30 resistant cotton aphids (Aphis gossypii) (all stages of life) (lineages collected in Miyazaki prefecture in 2012, screened with imidacloprid). After one day, the diluted solutions are sprayed into the seedling at a ratio of 10 mL/seedling. After 5 days, the number of the surviving insects is examined and the controlling value is calculated by the following equation.
Controlling value (%)−{1−(Cb×Tai)/(Cai×Tb)}×100
wherein the symbols in the equation represent the following descriptions. • Cb: Number of the test insects in untreated group; • Cai: Number of the surviving insects at the time of the examination in untreated group; • Tb: Number of the test insects in treated group; • Tai: Number of the surviving insects at the time of the examination in treated group;
Here the “untreated group” represents a group where a similar treatment procedure to that of treated group except not using the test compound is done.

[3] = Test method 2: spray on rice seedlings, resistant brown planthopper larvae released; format: in vivo; conditions: Nilaparvata lugens, Comparative Test Example 2, 500 ppm
Method: Test compounds are made to a formulation according to a similar method to that described in the Formulation example 5, and thereto is added water containing 0.03 v/v % of Shindain (registered trademark) to prepare a diluted solution containing a prescribed concentration of the test compound.
Rice (Oryza sativa) seedling (on the developmental stage of the second true leaf) is planted in a container, and the diluted solutions are sprayed into the seedling in a ratio of 10 mL/seedling. Thereafter, 20 of 3rd instar larvae of resistant brown planthoppers (Nilaparvata lugens) (lineages collected in Kagoshima prefecture in 2018, screened with imidacloprid) are released onto the rice leaves. After 6 days, the number of the surviving insects is examined and the mortality is calculated by the following equation.
Mortality (%)={1−the number of the surviving insects/20}×100

Measured: mortality at 500 ppm

N#Cc1ccc(-c2nc(-c3c(Cl)cncc3Cl)no2)cc1 [Comparative compound 1]
10%: [1] | [2] | [3]
